Laboratory results reported in US10730889B2, “Amido spirocyclic amide and sulfonamide derivatives” (Forma TM, LLC, priority 2012, dated 2020).
Like-named read-outs stand apart in the source and are kept apart here.

Key:
[1] = system: A2780 cells; experiment: In-vitro cell proliferation assay (SRB, 72 hours); format: cell-based; settings: A2780 cells, 72 hours, SRB, read-out: Cell Proliferation (IC50)
[2] = target: NAMPT (Homo sapiens (Human), UniProt P43490); experiment: Biochemical inhibition assay (NAMPT enzymatic reaction, NMN quantified by mass spectrometry)
Sequence of NAMPT (P43490 whole entry): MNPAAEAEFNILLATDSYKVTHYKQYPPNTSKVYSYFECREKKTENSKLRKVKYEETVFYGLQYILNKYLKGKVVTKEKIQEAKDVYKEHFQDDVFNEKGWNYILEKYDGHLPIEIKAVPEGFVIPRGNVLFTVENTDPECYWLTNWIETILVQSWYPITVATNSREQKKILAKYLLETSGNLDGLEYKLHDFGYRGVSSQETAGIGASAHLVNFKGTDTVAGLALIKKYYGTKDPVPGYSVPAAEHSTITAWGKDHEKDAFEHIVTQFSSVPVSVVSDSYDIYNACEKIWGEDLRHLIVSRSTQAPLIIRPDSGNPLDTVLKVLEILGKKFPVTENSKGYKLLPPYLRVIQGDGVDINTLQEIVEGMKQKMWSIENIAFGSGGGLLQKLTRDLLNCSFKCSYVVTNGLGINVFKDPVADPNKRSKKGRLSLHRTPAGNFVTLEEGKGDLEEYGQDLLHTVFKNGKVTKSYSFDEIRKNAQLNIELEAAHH

Row | Compound | IC50 ([1]; Homo sapiens, A2780, 72 h) [nM] | IC50 [2] [nM] | IC50 [1] [nM]
1 | Cn1nc(C(=O)N2CCC3(CC2)CC3CNC(=O)c2cc3ccncc3o2)cc1C(F)(F)F (centres unmarked) [Example 131, N-[[6-[1-methyl-5-(trifluoromethyl]pyrazole-3-carbonyl]-6-azaspiro[2.5]octan-2-yl]methyl]furo[2,3-c]pyridine-2-carboxamide] | 326 | 356 | –
2 | CC1(C)CC1C(=O)N1CCC2(CC1)CC2CNC(=O)c1cc2ccncc2o1 (centres unmarked) [Example 371, N-[[6-(2,2-dimethylcyclopropanecarbonyl)-6-azaspiro[2.5]octan-2-yl]methyl]furo[2,3-c]pyridine-2-carboxamide] | 30.2 | – | –
3 | CN1CCN(C(=O)c2ccc(C(=O)N3CCC4(CC3)CC4CNC(=O)N3Cc4ccncc4C3)cc2)CC1 (centres unmarked) [Example 372, N-[[6-[4-(4-methylpiperazine-1-carbonyl)benzoyl]-6-azaspiro[2.5]octan-2-yl]methyl]-1,3-dihydropyrrolo[3,4-c]pyridine-2-carboxamide] | 27.5 | – | –
4 | CC1(OC(=O)N2CCC3(CC2)CC3CNC(=O)N2Cc3ccncc3C2)CCOC1 (centres unmarked) [Example 375, (3-methyltetrahydrofuran-3-yl) 2-[(1,3-dihydropyrrolo[3,4-c]pyridine-2-carbonylamino)methyl]-6-azaspiro[2.5]octane-6-carboxylate] | 1.11 | – | –
5 | CC(C)(O)COC(=O)N1CCC2(CC1)CC2CNC(=O)N1Cc2ccncc2C1 (centres unmarked) [Example 376, (2-hydroxy-2-methyl-propyl) 2-[(1,3-dihydropyrrolo[3,4-c]pyridine-2-carbonylamino)methyl]-6-azaspiro[2.5]octane-6-carboxylate] | 16.1 | – | –
6 | CC(C)(C)CS(=O)(=O)N1CCC2(CC1)CC2CNC(=O)c1cc2ccncc2o1 (centres unmarked) [Example 378, N-[[6-(2,2-dimethylpropylsulfonyl)-6-azaspiro[2.5]octan-2-yl]methyl]furo[2,3-c]pyridine-2-carboxamide] | 2000 | – | –
7 | CC(C)(C)CS(=O)(=O)N1CCC2(CC1)CC2CNC(=O)c1cc2cnccc2[nH]1 (centres unmarked) [Example 379, N-[[6-(2,2-dimethylpropylsulfonyl)-6-azaspiro[2.5]octan-2-yl]methyl]-1H-pyrrolo[3,2-c]pyridine-2-carboxamide] | 2000 | – | –
8 | CC(C)(C)OC(=O)N1CCC2(CC1)CC2CNC(=O)c1cnn2nccc2c1 (centres unmarked) [Example 383, tert-Butyl 2-[(pyrazolo[1,5-b]pyridazine-5-carbonylamino)methyl]-6-azaspiro[2.5]octane-6-carboxylate] | 2000 | 15.8 | –
9 | Cc1nc(C)c(C(=O)N2CCC3(CC2)CC3CNC(=O)c2cc3ccncc3o2)o1 (centres unmarked) [Example 385, N-[[6-(2,4-dimethyloxazole-5-carbonyl)-6-azaspiro[2.5]octan-2-yl]methyl]furo[2,3-c]pyridine-2-carboxamide] | – | – | 17.1
10 | CC(C)(O)COCC(=O)N1CCC2(CC1)CC2CNC(=O)c1cc2cnccc2[nH]1 (centres unmarked) [Example 387, N-[[6-[2-(2-hydroxy-2-methyl-propoxy)acetyl]-6-azaspiro[2.5]octan-2-yl]methyl]-1H-pyrrolo[3,2-c]pyridine-2-carboxamide] | 535 | – | –
11 | Cc1nc(C(F)(F)F)c(C(=O)N2CCC3(CC2)CC3CNC(=O)N2Cc3ccncc3C2)s1 (centres unmarked) [Example 388, N-[[6-[2-methyl-4-(trifluoromethyl]thiazole-5-carbonyl]-6-azaspiro[2.5]octan-2-yl]methyl]-1,3-dihydropyrrolo[3,4-c]pyridine-2-carboxamide] | 1.26 | – | –
12 | CC1(C)CC1C(=O)N1CCC2(CC1)CC2CNC(=O)N1Cc2ccncc2C1 (centres unmarked) [Example 389, N-[[6-(2,2-dimethylcyclopropanecarbonyl)-6-azaspiro[2.5]octan-2-yl]methyl]-1,3-dihydropyrrolo[3,4-c]pyridine-2-carboxamide] | 0.575 | – | –
13 | CC(C)(C)OC(=O)N1CCC2(CC1)CC2CNC(=O)NCc1ccc2nccn2c1 (centres unmarked) [Example 392, tert-butyl 2-[(imidazo[1,2-a]pyridin-6-ylmethylcarbamoylamino)methyl]-6-azaspiro[2.5]octane-6-carboxylate] | 2000 | – | –
14 | Nc1ccc(CC(=O)N2CCC3(CC2)CC3CNC(=O)N2Cc3ccncc3C2)cn1 (centres unmarked) [Example 394, N-[[6-[2-(6-Amino-3-pyridyl)acetyl]-6-azaspiro[2.5]octan-2-yl]methyl]-1,3-dihydropyrrolo[3,4-c]pyridine-2-carboxamide] | 14.5 | – | –
15 | O=C(NCC1CC12CCN(C(=O)N1CCOCC1)CC2)N1Cc2ccncc2C1 (centres unmarked) [Example 395, N-[[6-(morpholine-4-carbonyl)-6-azaspiro[2.5]octan-2-yl]methyl]-1,3-dihydropyrrolo[3,4-c]pyridine-2-carboxamide] | 24.3 | – | –
16 | CC(C)(O)CCC(=O)N1CCC2(CC1)CC2CNC(=O)c1cc2cnccc2[nH]1 (centres unmarked) [Example 397, N-[[6-(4-hydroxy-4-methyl-pentanoyl)-6-azaspiro[2.5]octan-2-yl]methyl]-1H-pyrrolo[3,2-c]pyridine-2-carboxamide] | 888 | – | –
17 | O=C(NCC1CC12CCN(C(=O)c1cnccc1C(F)(F)F)CC2)N1Cc2ccncc2C1 (centres unmarked) [Example 398, N-[[6-[4-(trifluoromethyl]pyridine-3-carbonyl]-6-azaspiro[2.5]octan-2-yl]methyl]-1,3-dihydropyrrolo[3,4-c]pyridine-2-carboxamide] | 0.722 | – | –
18 | CC1(O)CC(CC(=O)N2CCC3(CC2)CC3CNC(=O)c2cc3cnccc3[nH]2)C1 (centres unmarked) [Example 400, N-[[6-[2-(3-hydroxy-3-methyl-cyclobutyl)acetyl]-6-azaspiro[2.5]octan-2-yl]methyl]-1H-pyrrolo[3,2-c]pyridine-2-carboxamide] | 222 | – | –
19 | CC(C)(C)OC(=O)N1CCC2(CC1)CC2CNC(=O)c1ccc2nccn2n1 (centres unmarked) [Example 402, tert-butyl 2-[(imidazo[1,2-b]pyridazine-6-carbonylamino)methyl]-6-azaspiro[2.5]octane-6-carboxylate] | 2000 | – | –
20 | CC1(CC(=O)N2CCC3(CC2)CC3CNC(=O)N2Cc3ccncc3C2)CCN(CC(F)(F)F)CC1 (centres unmarked) [Example 403, N-[[6-[2-[4-Methyl-1-(2,2,2-trifluoroethyl)-4-piperidyl]acetyl]-6-azaspiro[2.5]octan-2-yl]methyl]-1,3-dihydropyrrolo[3,4-c]pyridine-2-carboxamide] | 2.9 | – | –
21 | CC(C)(C)OC(=O)N1CCC2(CC1)CC2CNC(=O)N1Cc2cnc(N)cc2C1 (centres unmarked) [Example 406] | 2000 | – | –
22 | O=C(Cc1cncnc1)N1CCC2(CC1)CC2CNC(=O)N1Cc2ccncc2C1 (centres unmarked) [Example 407, N-[[6-(2-pyrimidin-5-ylacetyl)-6-azaspiro[2.5]octan-2-yl]methyl]-1,3-dihydropyrrolo[3,4-c]pyridine-2-carboxamide] | 72.6 | – | –
23 | O=C(NCC1CC12CCN(C(=O)c1ccccc1)CC2)c1cc2ccncc2o1 (centres unmarked) [Example 411, N-((6-benzoyl-6-azaspiro[2.5]octan-2-yl)methyl]furo[2,3-c]pyridine-2-carboxamide] | 2000 | – | –
24 | Cc1ncoc1C(=O)N1CCC2(CC1)CC2CNC(=O)N1Cc2ccncc2C1 (centres unmarked) [Example 415, N-[[6-(4-methyloxazole-5-carbonyl)-6-azaspiro[2.5]octan-2-yl]methyl]-1,3-dihydropyrrolo[3,4-c]pyridine-2-carboxamide] | 14.2 | – | –
25 | CC(C)OC(=O)N1CCC2(CC1)CC2CNC(=O)c1cc2ccncc2o1 (centres unmarked) [Example 416, isopropyl 2-[(furo[2,3-c]pyridine-2-carbonylamino)methyl]-6-azaspiro[2.5]octane-6-carboxylate] | 461 | – | –
26 | CC1(OC(=O)N2CCC3(CC2)CC3CNC(=O)c2cc3ccncc3o2)COC1 (centres unmarked) [Example 417, (3-methyloxetan-3-yl) 2-[(furo[2,3-c]pyridine-2-carbonylamino)methyl]-6-azaspiro[2.5]octane-6-carboxylate] | 830 | – | –
27 | N-[[6-(2,2- dimethylcyclopropanecarbonyl)- 6-azaspiro[2.5]octan-2- yl]methyl]furo[2,3-c]pyndine-2- carboxamide [Example 373] | – | – | 7.03
